From PubChem BioAssay AID1963832 (Molecular Pharmacology Branch, DTP, NCI, 2024)
pIC50: −log10 of the molar value.

Tested on: 885724-159-R-J1-PDC complex spheroid viability
Assay: Anticancer human tumor 885724-159-R-J1-PDC patient-derived pancreatic adenocarcinoma cell line growth inhibition [POLQ]
Conditions: for pIC50: curve of first compound; for viability, T/C: stronger effect = lower value
Protocol: Multicellular complex tumor spheroid response to Polymerase (POL) inhibitors (novobiocin, ART-558, RP6685) in combination with a variety of drugs and investigational agents in selected tumor cell lines
The POL inhibitors (novobiocin, ART-558, and RP6685) were evaluated both individually and in combination with standard of care and investigational anticancer small molecules within a complex spheroid model of solid tumors. . Complex spheroids include a stromal component modeled by human endothelial cells (HUVEC) and fibroblasts modeled by human mesenchymal stem cells (MSCs). The concentration ranges selected for each drug and investigational agent were based upon clinically achievable concentrations if the clinical Cmax of the agent was known.
Compounds. The drugs and investigational agents: novobiocin (NSC847541), ART-558 (NSC835418), RP-6685 (NSC848927), peposertib (NSC802822), ceralasertib (NSC780249), elimusertib (NSC800525), camonsertib (NSC841442), AZD-1390 (NSC803789), olaparib (NSC753686), talazoparib (NSC767125), rucaparib (NSC756644), sotorasib (NSC818433), MRTX-1133 (NSC836407), SN-38 (NSC673596), topotecan (NSC609699), epotoside (NSC141540), doxorubicin (NSC123127), gemcitabine (NSC613327), 5-fluorouracil (NSC19893), paclitaxel (NSC125973), vemurafenib (NSC761431), MSA-2 (NSC828583), SN-011 (NSC837082), adavosertib (NSC754352), prexasertib (NSC758257), carboplatin (NSC241240) and oxaliplatin (NSC266046), were obtained from the National Cancer Institute (NCI) Developmental Therapeutics Program Chemical Repository (21). The FDA-approved anticancer drug set is available from the Developmental Therapeutics Program at https://dtp.cancer.gov/organization/dscb/obtaining/. […] The stock solutions were prepared in dimethyl sulfoxide (DMSO, Sigma-Aldrich, St. Louis, MO, cat. D2650), except for the platinum compounds which were prepared in saline (Quality Biological, Gaithersburg, MD, cat. 114-055-101), at 800-fold the tested concentration and stored at -70 degrees C prior to their use. All drugs and investigational agents were tested over a range starting from a high concentration at or near the clinical Cmax and decreasing in half-log increments. If the clinical Cmax for an agent had not been determined, the highest concentration tested was 10 microM, except for SN-38, which was tested at a high concentration of 1 microM.
Cell Culture. All cells were maintained in an incubator at 37 degrees C and 5% CO2 with 95% humidity. The PDC lines were cultured according to standard operating procedures established by the NCI PDMR (https://pdmr.cancer.gov). Table 3 of the manuscript, lists the cell lines along with the number of the three cell types plated to form the mct-spheroids and media for tumor cell growth. After thawing, all PDC lines, except 997537-175-T-J1-PDC and 415267-285-R-J2-PDC, were cultured in Matrigel-coated flasks prepared with a working solution of 1X Ham's F-12 nutrient mix, without supplementation (Thermo Fisher Scientific, cat. 11765054), 100 U/mL penicillin-streptomycin (Thermo Fisher Scientific, cat. 15140122), and 2.5% Matrigel (Corning Inc., Corning, NY, cat. 354248) for the first three passages. The two PDC lines 997537-175-T-J1-PDC and 415267-285-R-J2-PDC were cultured on uncoated flasks. The 857933-349-R-J2-PDC line was cultured in 6C/Colon 1B media containing advanced DMEM/F-12 (Thermo Fisher Scientific, cat. 12634028), 10 mM HEPES (Thermo Fisher Scientific, cat. 15630080), 1X GlutaMAX supplement (Thermo Fisher Scientific, cat. 35050061), 0.1 mg/mL primocin (InvivoGen, San Diego, CA, cat. ant-pm-2), 10% defined fetal bovine serum, heat inactivated (HyClone Laboratories Inc., Logan, UT, cat. SH30070.03HI), 50% L-WRN conditioned media (ATCC, cat. CRL-3276), 1.25 mM N-Acetyl-L-cysteine (Sigma-Aldrich, cat. A9165), 10 mM nicotinamide (Sigma-Aldrich, cat. N0636), 1X B-27 supplement (Thermo Fisher Scientific, cat. 17504044), 1X N-2 supplement (Thermo Fisher Scientific, cat. […]
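Note: spheroids exposed to compounds for 7 days.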

Cn1ncnc1[C@H]1c2n[nH]c(=O)c3cc(F)cc(c23)N[C@@H]1c1ccc(F)cc1 + Nc1ccc(C#CCN(C(=O)Cc2ncc(C(F)(F)F)cc2C(F)(F)F)c2ccc(F)cc2)nn1
pIC50 (second compound 0.0316 µM): < 7.00 | pIC50 (second compound 0.1 µM): < 7.00 | pIC50 (second compound 0.316 µM): < 7.00 | pIC50 (second compound 1 µM): < 7.00 | pIC50 (second compound 3.16 µM): < 7.00 | pIC50 (second compound 10 µM): < 7.00 | viability, T/C (second compound 0.0316 µM, first compound 0.000316 µM): 95.1% | viability, T/C (second compound 0.0316 µM, first compound 0.001 µM): 86.4% | viability, T/C (second compound 0.0316 µM, first compound 0.00316 µM): 90.3% | viability, T/C (second compound 0.0316 µM, first compound 0.01 µM): 90.7% | viability, T/C (second compound 0.0316 µM, first compound 0.0316 µM): 88.1% | viability, T/C (second compound 0.0316 µM, first compound 0.1 µM): 86.8% | viability, T/C (second compound 0.1 µM, first compound 0.000316 µM): 104% | viability, T/C (second compound 0.1 µM, first compound 0.001 µM): 86.5% | viability, T/C (second compound 0.1 µM, first compound 0.00316 µM): 90.1% | viability, T/C (second compound 0.1 µM, first compound 0.01 µM): 88.1% | viability, T/C (second compound 0.1 µM, first compound 0.0316 µM): 93.1% | viability, T/C (second compound 0.1 µM, first compound 0.1 µM): 80.4% | viability, T/C (second compound 0.316 µM, first compound 0.000316 µM): 99.9% | viability, T/C (second compound 0.316 µM, first compound 0.001 µM): 94.1% | viability, T/C (second compound 0.316 µM, first compound 0.00316 µM): 89.8% | viability, T/C (second compound 0.316 µM, first compound 0.01 µM): 84.8% | viability, T/C (second compound 0.316 µM, first compound 0.0316 µM): 87.4% | viability, T/C (second compound 0.316 µM, first compound 0.1 µM): 75.7% | viability, T/C (second compound 1 µM, first compound 0.000316 µM): 99.2% | viability, T/C (second compound 1 µM, first compound 0.001 µM): 88% | viability, T/C (second compound 1 µM, first compound 0.00316 µM): 89.5% | viability, T/C (second compound 1 µM, first compound 0.01 µM): 95% | viability, T/C (second compound 1 µM, first compound 0.0316 µM): 92.2% | viability, T/C (second compound 1 µM, first compound 0.1 µM): 81.7% | viability, T/C (second compound 3.16 µM, first compound 0.000316 µM): 97.8% | viability, T/C (second compound 3.16 µM, first compound 0.001 µM): 88% | viability, T/C (second compound 3.16 µM, first compound 0.00316 µM): 90% | viability, T/C (second compound 3.16 µM, first compound 0.01 µM): 87% | viability, T/C (second compound 3.16 µM, first compound 0.0316 µM): 83.9% | viability, T/C (second compound 3.16 µM, first compound 0.1 µM): 83.7% | viability, T/C (second compound 10 µM, first compound 0.000316 µM): 105% | viability, T/C (second compound 10 µM, first compound 0.001 µM): 92.1% | viability, T/C (second compound 10 µM, first compound 0.00316 µM): 96.1% | viability, T/C (second compound 10 µM, first compound 0.01 µM): 92.2% | viability, T/C (second compound 10 µM, first compound 0.0316 µM): 92.4% | viability, T/C (second compound 10 µM, first compound 0.1 µM): 84%
